# In patent US20030232862A1 (priority 2002, published 2003):
# Assays:
# [1] = test system: HT-29 cells; assay: Apoptosis and necrosis by morphology (acridine orange/ethidium bromide) in HT-29 cells; assay type: cell-based, human; settings: HT-29, six days
# Description: Apoptosis occurs naturally during normal tissue turnover and during embryonic development of organs and limbs. Apoptosis also is induced by cytotoxic T-lymphocytes and natural killer cells, by ionizing radiation and by certain chemotherapeutic drugs. Inappropriate regulation of apoptosis is thought to play an important role in many pathological conditions including cancer, AIDS, or Alzheimer's disease, etc. Compounds can be screened for induction of apoptosis using cultures of tumor cells maintained under conditions as described above. Treatment of cells with test compounds involves either pre- or post-confluent cultures and treatment for two to seven days at various concentrations. Apoptotic cells are measured in both the attached and “floating” compartments of the cultures. […]
# Reference compounds and test compounds were analyzed for their novel PDE inhibitory activity in accordance with the protocols for the assay, supra. […] Apoptotic and necrotic cell death was determined previously (Duke and Cohen, In: Current Protocols in Immunology, 3.17.1 - 3.17.16, New York, John Wiley and Sons, 1992). […]
# The apoptosis inducing activity for a series of phosphodiesterase inhibitors was determined. […] Apoptosis and necrosis were determined morphologically after acridine orange and ethidium bromide labeling in accordance with the assay described, supra. […]
# [2] = test system: PKG activity in SW480 colon cancer cells; assay: PKG activity assay in drug-treated SW480 cells; assay type: cell-based, human; settings: SW480, 48 hrs, with and without added cGMP; exisulind 200-600 μM, E4021 0.1-10 μM
# Description: The novel PKG assay of this invention involves binding to solid phase plural amino acid sequences, each of which contain at least the cGMP-binding (cGB) domain and the phosphorylation site of phosphodiesterase type 5 (“PDE5”). That sequence is known and described in the literature below. […] One way to bind the PDE5 sequences to a solid phase is to express those sequences as a fusion protein of the PDE5 sequence and one member of an amino acid binding pair, and chemically link the other member of that amino acid binding pair to a solid phase (e.g., beads). One binding pair that can be used is glutathione S-transferase (“GST”) and glutathione (“GSH”), with the GST being expressed as a fusion protein with the PDE5 sequence described above, and the GSH bound covalently to the solid phase. In this fashion, the PDE5 sequence/GST fusion protein can be bound to a solid phase simply by passing a solution containing the fusion protein over the solid phase, as described below.
# To assay a liquid sample believed to contain PKG using the PDE5-bound solid phase described above, the sample and the solid phase are mixed with phosphorylation buffer containing ^32P-γ-ATP. […]
# For each control or drug cell lysate sample to be evaluated, the reaction is started by adding phosphorylation buffer containing 10 μCi ^32P-γ-ATP solution (200 μM ATP, 4.5 mM MgCl; 5 mM KH2PO4; 5 mM K2HPO4;) to each mixture. […]
smiles,measurement,setting,value
"CC1=C(CC(=O)O)c2cc(F)ccc2/C1=C\c1ccc(S(C)(=O)=O)cc1 [Exisulind, 5-fluoro-2-methyl-1-(p-methylsulfonylbenzylidene)-3-indenylacetic acid]",apoptotic and necrotic cell death,[1],capable of causing apoptotic cell death without inducing necrosis
same,PKG activity relative to control,[2],increase in a dose-dependent manner
